# Measured values as given in US20210060118A1, “THERAPEUTIC HOMODIMER AND USES THEREOF” (priority 2014, published 2021).
# Where “and” joins values, the source holds several entries; their conditions need not be identical. Equal values may be shown once. Entries after “also recorded” stand apart in the source; their conditions may differ. Read-outs that look alike come from different tables or passages of the source. Bridge positions count the residues as written; N and C are the ends. Peptide text beside a SMILES is read from it. I, II: the chains in the order shown.
# What was measured:
# [1] = tested on: human buccal tissue model; assay: Human buccal tissue permeability screening (EpiOral tissue model, HPLC of supernatant); details: for Transmissibility (%): 30 minutes at 37° C.; for Peak Area by HPLC of Peptides in Solution, Post-overlay: supernatant above cells after 30 minutes at 37° C.
# Procedure: (§1) A human buccal tissue model was used for in vitro testing of the permeability of a number of disulphide-linked homodimers.
# (§2) Human oral mucosa tissue models were prepared in accordance with the standard protocols of a commercial reagent supplier (EpiOral™, MatTek Corporation; for details see http://www.mattek.com/epioral/applications/drug-delivery; see also for example Thakur et al., Drug Development and Industrial Pharmacy, 2007, 33(5), pages 513-52). In brief, the tissue models were prepared in tissue culture wells of 24-well plates containing an inner well (insert) with a microporous membrane base coated with an extracellular matrix preparation, on which the human mucosal cells were seeded. The inner well was submerged in the reagent supplier's recommended serum free culture medium which permeates through the microporous membrane to feed the cells in the insert. The cells were submerged in the culture medium for a few days, after insertion of the inner wells into the tissue culture wells and permeation of the culture medium into the inner wells, in accordance with the reagent supplier's recommendation. The inserts containing the developing tissues were then elevated to the air/liquid interface which induces stratification and differentiation. The resulting human buccal cell cultures were stratified, three dimensional tissues comprising 25-30 cell layers, non-cornified with nucleated cells extending up to the apical surface and with histology similar to that of native buccal tissue.
# (§3) The buccal tissue culture inserts were transferred from the original tissue culture 24-well plates (maintained at 4° C. in sealed bags containing 5% CO2) under sterile conditions into wells of a fresh 24-well plate containing 1.0 ml of the reagent supplier's recommended serum free medium pre-warmed to 37° C. The plate was then incubated in a humidified incubator at 37° C. in a 5% CO2 atmosphere for one hour as a pre-equilibration procedure prior to dosing.
# (§4) After removal of the pre-equilibrated plate from the incubator, any culture medium over the surface of the tissue was carefully removed and replaced with 100 μL of appropriately diluted homodimer solution in reagent supplier's recommended serum free culture medium (stock homodimer-containing medium). The plate was then incubated for a further 30 minutes at 37° C. in a 5% CO2 atmosphere. The plate was removed from the incubator and supernatant samples were taken from above the cells, inside the insert, and analysed by HPLC. The main peak areas for each tested peptide in the supernatants were compared to the corresponding peak areas for the tested peptides in the relevant pre-incubation samples of the stock homodimer-containing medium.
# [2] = tested on: human diabetic patients; assay: Therapeutic efficacy testing in human diabetic patients (HbA1c); assay type: in vivo; details: for HbA1c % Change: day 35 vs baseline; for HbA1c % Baseline (Mean ± sd.): before first dose
# Procedure: Homodimer C was tested in human clinical trials to determine therapeutic efficacy of transmucosal delivery. Both intraoral (sublingual) delivery and peroral delivery were tested. Two further groups of patients were administered an injectable preparation of Homodimer C to allow a comparison of the effects of transmucosal delivery to the effects of injection delivery.
# Diabetic patients treated with oral anti-diabetic drugs (e.g. sulfonylurea type drugs) or insulin were recruited and randomised to four patient groups: two injectable peptide groups (Groups 1 and 2) and to two oral peptide dosage groups, for delivery of Homodimer C either by sublingual administration (Group 3) or via enteric coated capsules (Group 4).
# Each group was administered five doses of Homodimer C. Homodimer C was administered once weekly (at days 0, 7, 14, 21 and 28 of the study) at a dose of 2 mg (which equates to approximately 0.03 mg/kg for a notional 70 kg subject) for all four groups. The homodimer injections were intramuscular, generally into the upper arm of the subjects. The patients' current treatment was not withdrawn during the study. HbA1c levels were determined in advance of the first dose and at day 35 of the study.
# [3] = tested on: human buccal tissue model
# Procedure: as §1, §2, §3, §4
# [4] = Table 1, stock homodimer-containing medium before incubation
smiles,measurement,setting,value
"CC(C)C[C@H](NC(=O)CNC(=O)[C@H](CCCNC(=N)N)NC(=O)[C@H](CC(C)C)NC(=O)[C@@H](N)CSSC[C@H](N)C(=O)N[C@@H](CC(C)C)C(=O)N[C@@H](CCCNC(=N)N)C(=O)NCC(=O)N[C@@H](CC(C)C)C(=O)N[C@@H](CC(C)C)C(=O)N1CCC[C@H]1C(=O)N[C@@H](CC(=O)O)C(=O)N[C@@H](Cc1ccc(O)cc1)C(=O)O)C(=O)N[C@@H](CC(C)C)C(=O)N1CCC[C@H]1C(=O)N[C@@H](CC(=O)O)C(=O)N[C@@H](Cc1ccc(O)cc1)C(=O)O [Homodimer B, reference compound] (I: H-CLRGLLPDY-OH / II: H-CLRGLLPDY-OH; disulfide I:1-II:1; N-terminus and C-terminus assumed)","transmissibility (absorption) across the human buccal tissue surface, in words",[1],did not demonstrate any transmissibility
same,Transmissibility (%),[1]; Table 1,0%
same,"Peak Area by HPLC of Peptides in Solution, Pre-overlay",[1]; [4],2023
same,"Peak Area by HPLC of Peptides in Solution, Post-overlay",[1]; Table 1,2396
CC(C)C[C@H](NC(=O)[C@@H]1CCCN1C(=O)[C@H](Cc1ccc(O)cc1)NC(=O)[C@H](CO)NC(=O)[C@H](CC(N)=O)NC(=O)[C@H](Cc1ccc(O)cc1)NC(=O)[C@H](CCC(N)=O)NC(=O)[C@H](CCC(N)=O)NC(=O)[C@@H](N)CSSC[C@H](N)C(=O)N[C@@H](CCC(N)=O)C(=O)N[C@@H](CCC(N)=O)C(=O)N[C@@H](Cc1ccc(O)cc1)C(=O)N[C@@H](CC(N)=O)C(=O)N[C@@H](CO)C(=O)N[C@@H](Cc1ccc(O)cc1)C(=O)N1CCC[C@H]1C(=O)N[C@@H](CC(C)C)C(=O)N[C@H](C(=O)O)[C@@H](C)O)C(=O)N[C@H](C(=O)O)[C@@H](C)O [Homodimer C] (I: H-CQQYNSYPLT-OH / II: H-CQQYNSYPLT-OH; disulfide I:1-II:1; N-terminus assumed),efficacy of intraoral (sublingual) or peroral routes compared with parenteral (injection),[2]; 2 mg once weekly x5,significantly more effective
same,HbA1c % Change,"[2]; Group 1, intramuscular injection 2 mg once weekly x5, insulin only, P = 0.045",−0.60%
same,HbA1c % Day 35 (Mean ± sd.),"[2]; Group 1, intramuscular injection 2 mg once weekly x5, previous treatment insulin only, n = 17",10.74 ± 2.0%
same,HbA1c % Baseline (Mean ± sd.),"[2]; Group 1, intramuscular injection, previous treatment insulin only, n = 17",11.34 ± 2.6%
same,HbA1c % Day 35 (Mean ± sd.),"[2]; Group 2, intramuscular injection 2 mg once weekly x5, oral anti-diabetics and/or insulin, n = 18",9.57 ± 1.79%
same,HbA1c % Change,"[2]; Group 2, intramuscular injection 2 mg once weekly x5, P = 0.033",−0.75%
same,HbA1c % Baseline (Mean ± sd.),"[2]; Group 2, intramuscular injection, previous oral anti-diabetics and/or insulin, n = 18",10.32 ± 2.24%
same,HbA1c % Day 35 (Mean ± sd.),"[2]; Group 3, sublingual 2 mg once weekly x5, n = 7",7.85 ± 2.03%
same,HbA1c % Change,"[2]; Group 3, sublingual 2 mg once weekly x5, P = 0.005",−1.33%
same,HbA1c % Baseline (Mean ± sd.),"[2]; Group 3, sublingual, previous oral anti-diabetics and/or insulin, n = 7",9.18 ± 2.64%
same,HbA1c % Day 35 (Mean ± sd.),"[2]; Group 4, enteric coated capsule (peroral) 2 mg once weekly x5, n = 7",8.12 ± 1.04%
same,HbA1c % Change,"[2]; Group 4, enteric coated capsule (peroral) 2 mg once weekly x5, P = 0.016",−1.18%
same,HbA1c % Baseline (Mean ± sd.),"[2]; Group 4, enteric coated capsule (peroral), previous oral anti-diabetics and/or insulin, n = 7",9.30 ± 1.65%
same,side-effects in human patients,[2]; doses of approximately 2 mg (approximately 0.03 mg/kg),without significant undesirable side-effects
same,"mean HbA1c levels at day 35 relative to mean baseline, in words",[2]; each of Groups 1-4,significantly reduced
same,"transmissibility (absorption) across the human buccal tissue surface, in words",[1],transmitted efficiently; also recorded: efficient uptake
same,Transmissibility (%),[1]; Table 1,94.1%
same,"Peak Area by HPLC of Peptides in Solution, Pre-overlay",[1]; [4],4142
same,"Peak Area by HPLC of Peptides in Solution, Post-overlay",[1]; Table 1,243
same,Transmissibility (%),"[1]; Table 2, triplicate cultures",93.3% and 84.5% and 100%
same,"Peak Area by HPLC of Peptides in Solution, Pre-overlay","[1]; Table 2, triplicate cultures, stock medium before incubation",4142
CC[C@H](C)[C@H](NC(=O)[C@H](CC(N)=O)NC(=O)[C@@H](N)CSSC[C@H](N)C(=O)N[C@@H](CC(N)=O)C(=O)N[C@H](C(=O)N[C@@H](Cc1ccc(O)cc1)C(=O)N1CCC[C@H]1C(=O)N[C@@H](CO)C(=O)N[C@@H](CC(=O)O)C(=O)N[C@@H](CO)C(=O)N[C@@H](Cc1ccc(O)cc1)C(=O)N[C@H](C(=O)N[C@@H](CC(N)=O)C(=O)N[C@@H](Cc1ccc(O)cc1)C(=O)N[C@@H](CC(N)=O)C(=O)N[C@@H](CCC(N)=O)C(=O)N[C@@H](CCCCN)C(=O)N[C@@H](Cc1ccccc1)C(=O)N[C@@H](CCCCN)C(=O)N[C@@H](CC(=O)O)C(=O)O)[C@@H](C)O)[C@@H](C)CC)C(=O)N[C@@H](Cc1ccc(O)cc1)C(=O)N1CCC[C@H]1C(=O)N[C@@H](CO)C(=O)N[C@@H](CC(=O)O)C(=O)N[C@@H](CO)C(=O)N[C@@H](Cc1ccc(O)cc1)C(=O)N[C@H](C(=O)N[C@@H](CC(N)=O)C(=O)N[C@@H](Cc1ccc(O)cc1)C(=O)N[C@@H](CC(N)=O)C(=O)N[C@@H](CCC(N)=O)C(=O)N[C@@H](CCCCN)C(=O)N[C@@H](Cc1ccccc1)C(=O)N[C@@H](CCCCN)C(=O)N[C@@H](CC(=O)O)C(=O)O)[C@@H](C)O [Homodimer A] (I: H-CNIYPSDSYTNYNQKFKD-OH / II: H-CNIYPSDSYTNYNQKFKD-OH; disulfide I:1-II:1; N-terminus and C-terminus assumed),"Peak Area by HPLC of Peptides in Solution, Post-overlay",[3],4439
same,"Peak Area by HPLC of Peptides in Solution, Pre-overlay",[3],5398
same,Transmissibility (%),[3],17.7%
same,"transmissibility (absorption) across the human buccal tissue surface, in words",[3],only poor transmissibility
